Assay results taken from patent publication US20030114530A1, “Remedies for degenerative arthritis” (priority 2000, published 2003).
Entries after “also recorded” stand apart in the source; their conditions may differ.

What was measured:
model of OA in rabbits = conditions: Inflamm Res 44, Suppl 2, S117-118 (1995); cited from earlier work
[1] = system: partial meniscectomy model of osteoarthritis rabbits; assay: partial meniscectomy model of osteoarthritis in rabbits; format: in vivo, rabbit
Description: The effect of the compound on osteoarthritis invented in this study was confirmed by the experiments of a partial meniscectomy model in rabbits.
Female rabbits (Kbs: NZW(Healthy)) were bred for one week before the experiments. The animals were subjected to OA model according to following method.
Each animal was anesthetized with a subcutaneous injection of xylazine (0.05 ml/kg) and an intravenous injection of sodium pentobarbital (20 mg/kg). Right hind knee was shaved, and the width of the knee was measured with the micrometer caliper. It was disinfected with iodine solution. If required local anesthesia was performed with lidocaine hydrochloride.
The skin and articular capsule around right knee were incised at right angle to patellar ligament, the fibular collateral and sesamoid ligament were transected with blades. Adrenaline solution was dropped for the arrest of hemorrhage. The lateral meniscus was partially removed. After washing the operated area with saline solution, the synovium and articular capsule were stitched together. Then muscular coat and skin were put in a suture. […]
After anesthesia with sodium pentobarbital (40 mg/kg), the hind knee was shaved and the width of them was measured with a micrometer caliper. […] After masking, the area of erosion was measured. […]

| Structure (SMILES) | effect on a model of OA (model of OA in rabbits) | erosion area of femur ([1]; 10, 30, 100 or 300 mg/kg twice a day, oral, 7 days after meniscectomy, FIG. 1) | efficacy in the partial meniscectomy OA model ([1]; rabbits, oral twice a day) |
| --- | --- | --- | --- |
| COc1ccc(S(=O)(=O)N(Cc2cccnc2)[C@@H](C(=O)NO)C(C)C)cc1.Cl [CGS-27023A, 2(R)-[N-(4-methoxyphenylsulfonyl)-N-(3-pyridylmethyl)amino]-3-methylbutanohydroxamic acid hydrochloride] | effected on a model of OA in rabbits |  |  |
| CCOCOC[C@H](C[C@H](C)C(=O)NO)NC(=O)c1ccc(Oc2ccccc2)cc1 [compound of formula (I), N-hydroxy-5-ethoxymethyloxy-2(S)-methyl-4(S)-(4-phenoxybenzoyl)aminopentanamide] |  | decreasing effect | shows an efficiency; also recorded: high-effectivity |
